Experiments:
[1] = test system: NK1R internalization in dorsal horn lamina I neurons; assay type: in vivo, rat; settings: intrathecal NPY one hour before hind paw clamp
[2] = test system: NK1R internalization in dorsal horn lamina I neurons; test: NK1R internalization evoked by non-noxious stimulus; assay type: in vivo, rat; settings: intrathecal NPY, carrageenan-inflamed paw; printed 'by nearly 50%'
[3] = test system: Y1 receptors; NK1R internalization in lamina I neurons; test: NK1R internalization evoked by dorsal root stimulation in spinal cord slices; assay type: cell-based, rat; settings: BIBO3304 100 nM with 100 nM [Leu^31,Pro^34]NPY
Y1 receptor = molecular target: T1, Y1 receptor (Mus musculus, UniProt Q04573); assay type: biochemical
T1 sequence (Q04573 1-382): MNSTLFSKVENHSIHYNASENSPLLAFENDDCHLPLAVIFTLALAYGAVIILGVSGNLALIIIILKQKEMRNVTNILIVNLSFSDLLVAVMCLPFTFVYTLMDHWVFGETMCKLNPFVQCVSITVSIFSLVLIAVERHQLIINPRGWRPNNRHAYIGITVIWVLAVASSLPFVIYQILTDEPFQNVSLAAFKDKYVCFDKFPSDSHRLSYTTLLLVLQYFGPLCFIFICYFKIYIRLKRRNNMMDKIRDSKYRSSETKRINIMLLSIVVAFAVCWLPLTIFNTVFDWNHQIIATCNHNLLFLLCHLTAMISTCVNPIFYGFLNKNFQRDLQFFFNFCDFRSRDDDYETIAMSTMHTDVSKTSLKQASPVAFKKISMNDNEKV

Compound	inhibition of evoked NK1R internalization [1]	inhibition of brush-evoked NK1R internalization [2]	effect on inhibition of NK1R internalization produced by Y1 agonist [3]	IC50 (Y1 receptor)
Neuropeptide Y [NPY]	50%	~50%		
NC(=O)NCc1ccc(CNC(=O)[C@@H](CCCN=C(N)N)NC(=O)C(c2ccccc2)c2ccccc2)cc1 [BIBO3304]			completely reversed	7.85 nM

From PMC4363128 (Neuroscience, 2013)
